Among the data in US8785630B2, “Insecticidal triazines and pyrimidines” (Vestaron Corporation, priority 2011, dated 2014) are mortality values, retold here.

The assay deals with beet armyworm (Spodoptera exigua). Description: Insecticidal test for beet armyworm, treated diet surface. As to conditions: 100 μg/cm^2 on diet surface, first instar larvae, 32 insects per treatment, observations 24, 48 and 96 hours. Type of assay: in vivo. As to the method: The compounds identified in Table 8 were prepared according to the previous methods and were tested against beet armyworm and corn earworm as follows:
Insecticidal Test for Beet Armyworm (Spodoptera exigua).
To prepare the test solution, the test compound was Formulated at 3499 ppm in solution as 5 mg compound/1.429 mL of 9 parts acetone: 1 part deionized H2O and vortexed to homogenize. 50 μL of the 3499 ppm (equivalent to 100 μg/cm^2 dose on diet surface area) test solution was pipetted upon the surface of 1 mL of solidified cool Southland Products Incorporated Beet Armyworm Diet (201 Stuart Island Road Lake Village, Ark. 71653) using an Eppendorf Repeater Plus with a 1 mL pipette tip. All pipetting of treatments was done in a Labconco Hood. Thirty minutes were allowed for the acetone to evaporate leaving a dose of 100 μg/cm^2 on the surface of the artificial diet. Two 24 hour old first instar Beet Armyworm (Spodoptera Exigua) larvae were placed in each well of the 128 well Bio-BA 128 Bioassay trays (CD International, Pitman, N.J., 08071, USA) using a #0 fine camel hair paint brush. Bioassay trays were sectioned into treatment groups of 8 with 16 replicates per treatment group (32 insects per treatment). Trays containing the treated diet and larvae were covered with a Bio-CV-16 cover (CD International, Pitman, N.J., 08071, USA) and then placed on a rack under florescent lights at 27° C., 20% relative humidity (RH) in the room, and 16 hr light: 8 hr dark for 96 hours. Observations were made 24, 48 and 96 hours after treatment and infestation. The number of insects dead were counted out of the 32 insects total per treatment and the results are given in a table as a percent mortality at a dose of 100 μg/cm^2. When finished, the tray was moved to the −5° C. freezer and left for 24 hr to insure mortality of the remaining S. exigua. After 24 hours, dispose of entire tray into waste bin.
Keys to the table: Mortality refers to activity against beet army worm (Spodoptera exigua) as defined above at the concentration of 100 μg/cm^2 (A=76-100% mortality, B=51-75% mortality, C=26-50% mortality and D=0-25% mortality).
In turn, `Fc1cccc(F)c1-c1nc(NN=Cc2ccc(OC(F)(F)F)cc2)nc(Nc2ccc(Cl)cc2)n1` [Example 1, N-(4-chlorophenyl)-4-(2,6-difluorophenyl)-6-(2-(4-(trifluoromethoxy)benzylidene)hydrazinyl)-1,3,5-triazin-2-amine] displayed a mortality at 100 µg/cm2 of 76 to 100%. As for `FC(F)(F)Oc1ccc(C=NNc2nc(Nc3ccc(Cl)cc3)nc(-c3ccccc3)n2)cc1` [Example 2, N-(4-chlorophenyl)-4-phenyl-6-(2-(4-(trifluoromethoxy)benzylidene)hydrazinyl)-1,3,5-triazin-2-amine], the mortality at 100 µg/cm2 lay in the range of 76 to 100%. Consider `FC(F)(F)Oc1ccc(C=NNc2nc(Nc3ccc(Cl)cc3)nc(-c3ccc(OC(F)(F)F)cc3)n2)cc1` [Example 3, N-(4-chlorophenyl)-4-(2-(4-(trifluoromethoxy)benzylidene)hydrazinyl)-6-(4-(trifluoromethoxy)phenyl)-1,3,5-triazin-2-amine], for which the mortality at 100 µg/cm2 lay in the range of 26 to 50%. `Fc1cccc(Cl)c1-c1nc(NN=Cc2ccc(OC(F)(F)F)cc2)nc(Nc2ccc(Cl)cc2)n1` [Example 4] yielded a mortality at 100 µg/cm2 of 76 to 100%. For `Fc1ccc(Nc2nc(NN=Cc3ccc(OC(F)(F)F)cc3)nc(-c3c(F)cccc3F)n2)cc1C(F)(F)F` [Example 5, 4-(2,6-difluorophenyl)-N-(4-fluoro-3-(trifluoromethyl)phenyl)-6-(2-(4-(trifluoromethoxy)benzylidene)hydrazinyl)-1,3,5-triazin-2-amine] the value was 26 to 50%; for `Fc1cccc(F)c1-c1nc(NN=Cc2ccc(OC(F)(F)F)cc2)nc(Nc2ccc(OC(F)(F)F)cc2)n1` [Example 6, 4-(2,6-difluorophenyl)-6-(2-(4-(trifluoromethoxy)benzylidene)hydrazinyl)-N-(4-(trifluoromethoxy)phenyl)-1,3,5-triazin-2-amine], 26 to 50%; for `Fc1cccc(F)c1-c1nc(NN=Cc2ccc(OC(F)(F)F)cc2)nc(Nc2cccc(C(F)(F)F)c2)n1` [Example 7, 4-(2,6-difluorophenyl)-6-(2-(4-(trifluoromethoxy)benzylidene)hydrazinyl)-N-(3-(trifluoromethyl)phenyl)-1,3,5-triazin-2-amine], 0 to 25%.

`Fc1cccc(F)c1-c1nc(NCc2ccc(Cl)nc2)nc(NN=Cc2ccc(OC(F)(F)F)cc2)n1` [Example 8, N-((6-chloropyridin-3-yl)methyl)-4-(2,6-difluorophenyl)-6-(2-(4-(trifluoromethoxy)benzylidene)hydrazinyl)-1,3,5-triazin-2-amine] returned a mortality at 100 µg/cm2 of 76 to 100%. As for `Fc1cccc(F)c1-c1nc(NN=Cc2ccc(OC(F)(F)F)cc2)nc(Nc2ccc(Cl)nc2)n1` [Example 9, N-(6-chloropyridin-3-yl)-4-(2,6-difluorophenyl)-6-(2-(4-(trifluoromethoxy)benzylidene)hydrazinyl)-1,3,5-triazin-2-amine], the mortality at 100 µg/cm2 is 76 to 100%. Take `Fc1cccc(F)c1-c1nc(NN=Cc2ccc(OC(F)(F)C(F)F)cc2)nc(Nc2ccc(Cl)cc2)n1` [Example 10, N-(4-chlorophenyl)-4-(2,6-difluorophenyl)-6-(2-(4-(1,1,2,2-tetrafluoroethoxy)benzylidene)hydrazinyl)-1,3,5-triazin-2-amine]: the mortality at 100 µg/cm2 lay within 76 to 100%. On to `Fc1cccc(Cl)c1-c1nc(NN=Cc2ccc(OC(F)(F)C(F)F)cc2)nc(Nc2ccc(Cl)cc2)n1` [Example 11, 4-(2-chloro-6-fluorophenyl)-N-(4-chlorophenyl)-6-(2-(4-(1,1,2,2-tetrafluoroethoxy)benzylidene)hydrazinyl)-1,3,5-triazin-2-amine], for which the mortality at 100 µg/cm2 is 76 to 100%.

With `Fc1cccc(Cl)c1-c1nc(NN=Cc2ccc(OC(F)(F)C(F)F)cc2)nc(Nc2ccc(Cl)nc2)n1` [Example 12, 4-(2-chloro-6-fluorophenyl)-N-(6-chloropyridin-3-yl)-6-(2-(4-(1,1,2,2-tetrafluoroethoxy)benzylidene)hydrazinyl)-1,3,5-triazin-2-amine], the mortality at 100 µg/cm2 lay within 76 to 100%.

With `Fc1cccc(Cl)c1-c1nc(NN=Cc2ccc(OC(F)(F)F)cc2)nc(Nc2ccc(Cl)nc2)n1` [Example 13, 4-(2-chloro-6-fluorophenyl)-N-(6-chloropyridin-3-yl)-6-(2-(4-(trifluoromethoxy)benzylidene)hydrazinyl)-1,3,5-triazin-2-amine], the mortality at 100 µg/cm2 was 76 to 100%. For `FC(F)(F)Oc1ccc(C=NNc2nc(Nc3ccc(Cl)cc3)nc(-c3c(Cl)cccc3Cl)n2)cc1` [Example 14, N-(4-chlorophenyl)-4-(2,6-dichlorophenyl)-6-(2-(4-(trifluoromethoxy)benzylidene)hydrazinyl)-1,3,5-triazin-2-amine] the value was 51 to 75%.

On to `Fc1cccc(F)c1-c1nc(NN=Cc2ccc(OC(F)(F)C(F)F)cc2)nc(Nc2ccc(Cl)nc2)n1` [Example 15, N-(6-chloropyridin-3-yl)-4-(2,6-difluorophenyl)-6-(2-(4-(1,1,2,2-tetrafluoroethoxy)benzylidene)hydrazinyl)-1,3,5-triazin-2-amine], for which the mortality at 100 µg/cm2 was in the range of 76 to 100%. For `FC(F)(F)Oc1ccc(C=NNc2nc(Nc3ccc(Cl)nc3)nc(-c3c(Cl)cccc3Cl)n2)cc1` [Example 16, N-(6-chloropyridin-3-yl)-4-(2,6-dichlorophenyl)-6-(2-(4-(trifluoromethoxy)benzylidene)hydrazinyl)-1,3,5-triazin-2-amine], the mortality at 100 µg/cm2 fell in the range of 76 to 100%. The compound `CCc1ccc(C=NNc2nc(Nc3ccc(Cl)cc3)nc(-c3c(F)cccc3Cl)n2)cc1` [Example 17, 4-(2-chloro-6-fluorophenyl)-N-(4-chlorophenyl)-6-(2-(4-ethylbenzylidene)hydrazinyl)-1,3,5-triazin-2-amine] returned a mortality at 100 µg/cm2 of 76 to 100%. For `N#Cc1ccc(C=NNc2nc(Nc3ccc(Cl)cc3)nc(-c3c(F)cccc3Cl)n2)cc1` [Example 18] the value was 76 to 100%; for `CCCC=NNc1nc(Nc2ccc(Cl)cc2)nc(-c2c(F)cccc2Cl)n1` [Example 19, 4-(2-butylidenehydrazinyl)-6-(2-chloro-6-fluorophenyl)-N-(4-chlorophenyl)-1,3,5-triazin-2-amine], 76 to 100%; for `Fc1cccc(Cl)c1-c1nc(NN=CCc2ccccc2)nc(Nc2ccc(Cl)cc2)n1` [Example 20, 4-(2-chloro-6-fluorophenyl)-N-(4-chlorophenyl)-6-(2-(2-phenylethylidene)hydrazinyl)-1,3,5-triazin-2-amine], 76 to 100%.

With `CC(=NNc1nc(Nc2ccc(Cl)cc2)nc(-c2c(F)cccc2Cl)n1)c1ccc(OC(F)(F)F)cc1` [Example 21, 4-(2-chloro-6-fluorophenyl)-N-(4-chlorophenyl)-6-(2-(1-(4-(trifluoromethoxy)phenyl)ethylidene)hydrazinyl)-1,3,5-triazin-2-amine], the mortality at 100 µg/cm2 lay within 76 to 100%.

Regarding `Fc1cccc(Cl)c1-c1nc(NCc2ccc(Cl)nc2)nc(NN=Cc2ccc(OC(F)(F)F)cc2)n1` [Example 22, 4-(2-chloro-6-fluorophenyl)-N-((6-chloropyridin-3-yl)methyl)-6-(2-(4-(trifluoromethoxy)benzylidene)hydrazinyl)-1,3,5-triazin-2-amine], the mortality at 100 µg/cm2 was in the range of 76 to 100%.

The compound `Cc1ccc(Nc2nc(NN=Cc3ccc(OC(F)(F)F)cc3)nc(-c3c(F)cccc3Cl)n2)cc1` [Example 23, 4-(2-chloro-6-fluorophenyl)-N-(p-tolyl)-6-(2-(4-(trifluoromethoxy)benzylidene)hydrazinyl)-1,3,5-triazin-2-amine] registered a mortality at 100 µg/cm2 of 76 to 100%. For `Fc1cccc(Cl)c1-c1nc(NCCN2CCOCC2)nc(NN=Cc2ccc(OC(F)(F)F)cc2)n1` [Example 24, 4-(2-chloro-6-fluorophenyl)-N-(2-morpholinoethyl)-6-(2-(4-(trifluoromethoxy)benzylidene)hydrazinyl)-1,3,5-triazin-2-amine] the value was 76 to 100%; for `CN(C)Nc1nc(NN=Cc2ccc(OC(F)(F)F)cc2)nc(-c2c(F)cccc2Cl)n1` [Example 25, 2-(2-chloro-6-fluorophenyl)-4-(2,2-dimethylhydrazinyl)-6-(2-(4-(trifluoromethoxy)benzylidene)hydrazinyl)-1,3,5-triazine], 76 to 100%; for `Fc1cccc(Cl)c1-c1nc(NCC2CCOC2)nc(NN=Cc2ccc(OC(F)(F)F)cc2)n1` (stereo not drawn) [Example 26, 4-(2-chloro-6-fluorophenyl)-N-((tetrahydrofuran-3-yl)methyl)-6-(2-(4-(trifluoromethoxy)benzylidene)hydrazinyl)-1,3,5-triazin-2-amine], 0 to 25%. `FC(F)(F)Oc1ccc(C=NNc2nc(Nc3ccc(Cl)cc3)nc(-c3c(Cl)cc(Cl)cc3Cl)n2)cc1` [Example 27, N-(4-chlorophenyl)-4-(2,4,6-trichlorophenyl)-6-(2-(4-(trifluoromethoxy)benzylidene)hydrazinyl)-1,3,5-triazin-2-amine] yielded a mortality at 100 µg/cm2 of 0 to 25%.

By mortality is commonly meant the percentage killed. A lower mortality goes with more survivors.
